Where “and” joins values, the source holds several entries; their conditions need not be identical. Equal values may be shown once.
Legend:
GSE1 = assay: Chemoproteomic competition pulldown assay (co-competed CoREST partner); assay type: binding
Protocol: (§1) To identify proteins directly bound by lipoic acid, we employed a chemoproteomic competition assay. Briefly, (R/S)-LA was immobilized on sepharose beads via an amidation reaction to form an affinity matrix (abbreviated as iL; Fig. 1a). This affinity matrix can be incubated with cell lysate to pull down potential LA or LM target proteins and identify these targets via bottom-up proteomics. In a competition assay, free LA or LM were incubated with lysate at different concentrations before pulling down and quantifying target proteins. […] (Fig. 1b, see “Methods” for details). […] The lysate buffer used in this assay contains 1 mM DTT to mimic the intracellular reductive milieu and to reduce lipoic acid and LM. […] Additional competition assays performed in lung adenocarcinoma cell A549 lysate also identified HDAC1, HDAC2, and HDAC6 as targets (Supplementary Fig. 1b). Amongst the three cell lines tested, HDACs were the only confidently identified targets across the 1500–3000 proteins quantified in these assays. […] We validated the results by analogous pulldown competition assays using two other affinity matrices prepared via the immobilization of either the HDAC inhibitor Quisinostat (iQ) and an analog of the class IIa HDAC inhibitor Bürli’s 31[14] (iC)[12]. We have previously shown that these affinity matrices specifically bind to the active sites of HDACs and have used them for HDACi selectivity profiling. Indeed, binding of (R/S)-LA and (R/S)-LM to HDAC1, HDAC2, HDAC3, HDAC6, and, to a lesser extent, HDAC8 was confirmed in these assays (Supplementary Fig. 1c, d). No binding to class IIa HDACs or the recently discovered common HDAC inhibitor off-target MBLAC2 was observed (Supplementary Fig. 1e)[12]. […] This observation might reflect electrostatic repulsion between the HDAC10 active site gate-keeper glutamic acid residues[15],[16] and the terminal carboxylic acid of LA.
(§2) To assess the degree of protein depletion from lysates by the affinity matrix, a second pulldown (PDPD) with fresh beads was performed using the unbound protein fraction from the vehicle control flow through. The beads were washed (1 × 1 mL of lysis buffer without inhibitors and only 0.4% Igepal, 2 × 2 mL of lysis buffer without inhibitors and only 0.2% Igepal), and captured proteins were denatured with 8 M urea buffer, alkylated with 55 mM chloroacetamide and digested with Trypsin according to standard procedures. The resulting peptides were desalted on a C18 filter plate (Sep-Pak® tC18 µElution Plate, Waters), vacuum dried, and stored at −20 °C until LC–MSMS measurement.
(§3) For the competition assays, relative binding was calculated based on the protein intensity ratio to the DMSO control for every single inhibitor concentration. EC50 values were derived from a four-parameter log-logistic regression with variable slope (constrain: bottom > 0). The obtained EC50 values were multiplied with a protein-dependent correction factor (cf), resulting in the apparent Kd value (Kd^app). The correction factor is determined by calculating the ratio of the protein intensity of two consecutive pulldowns of the vehicle control sample[13]. Targets of the inhibitors were annotated manually according to published procedures[12],[46],[47]. […] Additionally, the number of unique peptides and MSMS counts per condition were taken into account. Positive target binding across several independent experiments performed with different cell lysates further substantiated our confidence for a true positive drug-target binding event.

KDM1A = assay: as above; assay type: binding
Protocol: as §1, §2, §3

HDAC3/NcoR2 complex = target: T1, HDAC3/NcoR2 complex (Homo sapiens, UniProt O15379); assay: HDAC-Glo assay; assay type: biochemical; settings: for HDCA3 relative activity: sheet S2b
T1 construct: purchased BPS Bioscience 50003
T1 sequence (O15379 whole entry): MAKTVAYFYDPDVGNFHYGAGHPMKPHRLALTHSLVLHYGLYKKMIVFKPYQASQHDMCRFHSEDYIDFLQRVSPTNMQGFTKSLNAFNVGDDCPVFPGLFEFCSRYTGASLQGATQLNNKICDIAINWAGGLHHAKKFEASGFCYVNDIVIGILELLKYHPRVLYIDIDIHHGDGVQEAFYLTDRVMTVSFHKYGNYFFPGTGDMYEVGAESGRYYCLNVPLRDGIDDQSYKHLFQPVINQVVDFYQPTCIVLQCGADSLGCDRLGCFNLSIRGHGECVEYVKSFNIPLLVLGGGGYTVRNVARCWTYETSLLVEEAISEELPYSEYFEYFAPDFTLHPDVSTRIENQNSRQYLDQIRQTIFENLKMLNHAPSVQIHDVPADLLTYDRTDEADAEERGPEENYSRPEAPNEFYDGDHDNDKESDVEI
T1 sequence (Q9Y618 395-489 partner limits assumed): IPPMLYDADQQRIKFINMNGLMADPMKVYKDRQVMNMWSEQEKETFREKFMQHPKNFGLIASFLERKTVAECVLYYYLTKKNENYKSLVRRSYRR
Protocol: To validate the inhibition of HDACs by LA and LM and elaborate on the structure-activity relationship (SAR) of enantiomers as well as oxidized versus reduced forms of the molecules, we performed enzyme activity assays for recombinant HDAC1,2,3,6,8 as well as FRET-based binding assay for recombinant HDAC10.
The experiments were performed according to ref. [48]. […] Drug dosing was performed with a D300e Digital Dispenser (Tecan). HDACs (7 ng/mL for HDAC1, 25 ng/mL for HDAC2, 200 ng/mL for HDAC3/Ncor2 complex, 100 ng/mL for HDAC6, 200 ng/mL for HDAC8) and inhibitors were incubated together at room temperature (RT) for 30 min. After the addition of the HDAC-Glo™ I/II reagent, plates were shaken (800 rpm orbital shaker, 30 s), centrifuged (300 g, 1 min), and incubated at RT for 30 min. Luminescence was detected with a CLARIOstar (BMG Labtech) plate reader.

[1] = iL, MV4-11 lysate, log10 M -3.52288
[2] = iL, MV4-11 lysate, log10 M -4.52288
[3] = iL, MV4-11 lysate, log10 M -5.52288
[4] = iL, MV4-11 lysate, log10 M -6.52288
[5] = iQ, SW620 lysate, log10 M -3.52288
[6] = iQ, SW620 lysate, log10 M -4.52288
[7] = iQ, SW620 lysate, log10 M -5.52288
[8] = iQ, SW620 lysate, log10 M -6.52288

SMILES: NC(=O)CCCCC1CCSS1 (racemic) [(R/S)-LM, (R/S)-lipoamide]
- relative binding vs DMSO (GSE1; [1]): 0.03208
- relative binding vs DMSO (GSE1; iL, MV4-11 lysate, log10 M -4): 0.05802
- relative binding vs DMSO (GSE1; [2]): 0.1417
- relative binding vs DMSO (GSE1; iL, MV4-11 lysate, log10 M -5): 0.4933
- relative binding vs DMSO (GSE1; [3]): 0.6793
- relative binding vs DMSO (GSE1; iL, MV4-11 lysate, log10 M -6): 0.8351
- relative binding vs DMSO (GSE1; [4]): 0.9265
- relative binding vs DMSO (GSE1; iL, MV4-11 lysate, log10 M -7): 0.8883
- relative binding vs DMSO (GSE1; [5]): 0.1386
- relative binding vs DMSO (GSE1; iQ, SW620 lysate, log10 M -4): 0.1278
- relative binding vs DMSO (GSE1; [6]): 0.3991
- relative binding vs DMSO (GSE1; iQ, SW620 lysate, log10 M -5): 0.559
- relative binding vs DMSO (GSE1; [7]): 0.8469
- relative binding vs DMSO (GSE1; iQ, SW620 lysate, log10 M -6): 1.003
- relative binding vs DMSO (GSE1; [8]): 0.8631
- relative binding vs DMSO (GSE1; iQ, SW620 lysate, log10 M -7): 0.9076
- relative binding vs DMSO (KDM1A; [1]): 0.06889
- relative binding vs DMSO (KDM1A; iL, MV4-11 lysate, log10 M -4): 0.07597
- relative binding vs DMSO (KDM1A; [2]): 0.1867
- relative binding vs DMSO (KDM1A; iL, MV4-11 lysate, log10 M -5): 0.4972
- relative binding vs DMSO (KDM1A; [3]): 0.6394
- relative binding vs DMSO (KDM1A; iL, MV4-11 lysate, log10 M -6): 0.7472
- relative binding vs DMSO (KDM1A; [4]): 0.8335
- relative binding vs DMSO (KDM1A; iL, MV4-11 lysate, log10 M -7): 0.9817
- relative binding vs DMSO (KDM1A; [5]): 0.09916
- relative binding vs DMSO (KDM1A; iQ, SW620 lysate, log10 M -4): 0.186
- relative binding vs DMSO (KDM1A; [6]): 0.3209
- relative binding vs DMSO (KDM1A; iQ, SW620 lysate, log10 M -5): 0.6955
- relative binding vs DMSO (KDM1A; [7]): 0.8479
- relative binding vs DMSO (KDM1A; iQ, SW620 lysate, log10 M -6): 0.9866
- relative binding vs DMSO (KDM1A; [8]): 0.7392
- relative binding vs DMSO (KDM1A; iQ, SW620 lysate, log10 M -7): 0.6643
- EC50 (HDAC3/NcoR2 complex; read-out: log EC50 from dose-dependent HDAC inhibition curves (converted)): 15.6 µM
- HDCA3 relative activity (HDAC3/NcoR2 complex; log conc -3.30103): 69.6623 and 70.4079 and 69.1097
- HDCA3 relative activity (HDAC3/NcoR2 complex; log conc -3.82945): 75.2589 and 76.6842 and 75.5671
- HDCA3 relative activity (HDAC3/NcoR2 complex; log conc -4.35788): 87.3214 and 88.0897 and 87.877
- HDCA3 relative activity (HDAC3/NcoR2 complex; log conc -4.88629): 91.0887 and 91.1636 and 92.3406
- HDCA3 relative activity (HDAC3/NcoR2 complex; log conc -5.41477): 88.6242 and 91.0601 and 91.2237
- HDCA3 relative activity (HDAC3/NcoR2 complex; log conc -5.94309): 95.2751 and 94.3928 and 97.2335
- HDCA3 relative activity (HDAC3/NcoR2 complex; log conc -6.47756): 90.1183 and 90.3135 and 93.1985
- HDCA3 relative activity (HDAC3/NcoR2 complex; log conc -6.87615): 107.529 and 106.868 and 106.288
